# Literature values, collected in publication PMC6940698.
# Assay: not told
smiles,measurement,value
O=C(O)c1cc(S(=O)(=O)O)ccc1O,log partition benzene / water,0.34 ratio
same,log partition toluene / water,0.26 ratio
same,log partition xylene / water,0.23 ratio
